Assay results published in patent publication US20260042764A1, “COMPOSITIONS AND METHODS FOR INHIBITION OF KRAS” (TheRas, Inc., priority 2022, published 2026).

What was measured:
[1] = molecular target: T1, Avi-KRAS WT (1-169) GppNHp/RAF1 RBD-3xFLAG (52-151) (Homo sapiens, UniProt P01116); experiment: Raf1-KRAS WT-GppNHP disruption HTRF assay (Biological Example 1); assay type: binding
T1 construct: Avi-KRAS WT (1-169)
Method in brief: (§1)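 Using HTRF, the loss of KRAS–effector RAF1 complex was quantified in 50 mM Tris pH 7.5 buffer with 100 mM NaCl and 0.1% BSA. The protein step and reagent step ran 1 h each at room temperature. Activity normalized with DMSO taken as 100%.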

[2] = molecular target: T2, Avi-KRAS G12V (1-169) GppNHp/RAF1 RBD-3xFLAG (52-151) (Homo sapiens, UniProt P01116, G12V); experiment: Raf1-KRAS G12V-GppNHP disruption HTRF assay (Biological Example 1); assay type: binding
T2 construct: Avi-KRAS G12V (1-169)
T2 sequence (P01116 1-169 isoform P01116-2 G12V): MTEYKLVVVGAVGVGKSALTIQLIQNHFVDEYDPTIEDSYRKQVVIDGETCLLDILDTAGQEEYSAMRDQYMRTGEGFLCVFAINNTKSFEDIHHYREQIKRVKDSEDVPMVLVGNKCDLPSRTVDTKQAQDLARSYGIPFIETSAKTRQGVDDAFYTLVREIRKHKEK
Method in brief: as §1

[3] = molecular target: T3, Avi-KRAS G12R (1-169) GppNHp/RAF1 RBD-3xFLAG (52-151) (Homo sapiens, UniProt P01116, G12R); experiment: Raf1-KRAS G12R-GppNHP disruption HTRF assay (Biological Example 1); assay type: binding
T3 construct: Avi-KRAS G12R (1-169)
T3 sequence (P01116 1-169 isoform P01116-2 G12R): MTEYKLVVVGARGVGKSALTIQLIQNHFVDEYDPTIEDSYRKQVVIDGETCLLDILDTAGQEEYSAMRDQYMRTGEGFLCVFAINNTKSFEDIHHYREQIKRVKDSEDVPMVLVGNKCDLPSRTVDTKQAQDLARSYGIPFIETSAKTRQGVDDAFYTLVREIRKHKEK
Method in brief: as §1

[4] = tested on: SW620 cells (KRAS G12V); experiment: Cell-based pERK HTRF assay in SW620 cell (Biological Example 4); details: pERK HTRF
Method in brief: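 In SW620 cells grown in RPMI with 10% FBS, a 4 h compound treatment (0.25% DMSO, 9-point curve from 1 μM) preceded lysis. Phospho-ERK levels were then read by time-resolved FRET at 615 nm emission.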

[5] = molecular target: T4, Avi-KRAS G12D (1-169) GppNHp/RAF1 RBD-3xFLAG (52-151) (Homo sapiens, UniProt P01116, G12D); experiment: Raf1-KRAS G12D-GppNHP disruption HTRF assay (Biological Example 1); assay type: binding
T4 construct: Avi-KRAS G12D (1-169)
T4 sequence (P01116 1-169 isoform P01116-2 G12D): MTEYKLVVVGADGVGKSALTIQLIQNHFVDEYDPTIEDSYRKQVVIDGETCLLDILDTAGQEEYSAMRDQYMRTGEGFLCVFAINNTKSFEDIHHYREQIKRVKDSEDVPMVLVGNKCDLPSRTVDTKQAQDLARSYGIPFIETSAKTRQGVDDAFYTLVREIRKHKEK
Method in brief: as §1

[6] = tested on: GP2d cells (KRAS G12D); experiment: Cell-based pERK HTRF assay in GP2d cell (Biological Example 2); details: GP2d (KRAS G12D) cells, pERK HTRF
Method in brief: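 Cells grown in DMEM with 10% FBS were exposed to compound for 60 min at 0.25% DMSO, using a 9-point half-log series starting at 1 μM or 100 nM. Lysates were then mixed with d2 and Eu cryptate antibodies for 4–24 h at room temperature, and pERK was read by HTRF.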

[7] = Homo sapiens, SW-620, SW620 (KRAS G12V) cells
[8] = KRAS WT, GppNHp-loaded, class symbols
[9] = KRAS G12V, GppNHp-loaded, class symbols
[10] = KRAS G12R, GppNHp-loaded, class symbols
[11] = Homo sapiens, SW-620, SW620 (KRAS G12V) cells, class symbols
[12] = KRAS G12D, GppNHp-loaded, class symbols

T1 sequence (P01116 1-169 isoform P01116-2): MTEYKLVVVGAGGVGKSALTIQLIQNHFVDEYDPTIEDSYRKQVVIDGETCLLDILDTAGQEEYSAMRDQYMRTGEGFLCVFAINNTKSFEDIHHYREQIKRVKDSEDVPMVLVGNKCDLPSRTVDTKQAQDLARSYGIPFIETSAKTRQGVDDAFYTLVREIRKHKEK

| Compound | IC50 ([1]; KRAS WT-GppNHp/RAF1 RBD HTRF) [nM] | IC50 ([2]; KRAS G12V-GppNHp/RAF1 RBD HTRF) [nM] | IC50 ([3]; KRAS G12R-GppNHp/RAF1 RBD HTRF) [nM] | IC50 [4, 7] [nM] | IC50 ([5]; KRAS G12D-GppNHp/RAF1 RBD HTRF) [nM] | IC50 ([6]; GP2d) [nM] | IC50 [1, 8] [nM] | IC50 [2, 9] [nM] | IC50 [3, 10] [nM] | IC50 [4, 11] [nM] | IC50 [5, 12] [nM] | IC50 ([6]; GP2d, class symbols) [nM] | IC50 ([4]; SW620 (KRAS G12V) cells) [nM] | IC50 [6] [nM] |
| --- | --- | --- | --- | --- | --- | --- | --- | --- | --- | --- | --- | --- | --- | --- |
| CC(=O)N1C2CCC1CN(c1nc(OC[C@@]34CCCN3C[C@H](F)C4)nc3c(F)c(-c4ccc(F)c5sc(N)c(C#N)c45)c(C(F)(F)F)cc13)C2 [Compound 438] | 100 to 1000 | 1000 to 10000 | 100 to 1000 | < 100 | 100 to 1000 | < 100 | – | – | – | – | – | – | – | – |
| CCN1C[C@H](N(CC)c2nc(OC[C@@]34CCCN3C[C@H](F)C4)nc3c(F)c(-c4ccc(F)c5sc(N)c(C#N)c45)c(C(F)(F)F)cc23)CC1=O (atropisomer, axis not shown) [Compound 699] | – | – | – | – | – | – | 100 to 1000 | 100 to 1000 | 100 to 1000 | < 100 | 100 to 1000 | < 100 | – | – |
| CCN(c1nc(OC[C@@]23CCCN2C[C@H](F)C3)nc2c(F)c(-c3ccc(F)c4sc(N)c(C#N)c34)c(C(F)(F)F)cc12)[C@@H]1C[C@@H](C)N(C(=O)N(C)C)C1 (atropisomer, axis not shown) [Compound 525] | 100 to 1000 | 1000 to 10000 | 1000 to 10000 | < 100 | 1000 to 10000 | < 100 | – | – | – | – | – | – | – | – |
| CN(c1nc(OC[C@@]23CCCN2C[C@H](F)C3)nc2c(F)c(-c3ccc(F)c4sc(N)c(C#N)c34)c(C(F)(F)F)cc12)C1CCS(=O)(=O)CC1 [Compound 330] | 100 to 1000 | 1000 to 10000 | 1000 to 10000 | 100 to 1000 | 100 to 1000 | < 100 | – | – | – | – | – | – | – | – |
| C[C@H]1Cn2nnc(C#N)c2CN1c1nc(OC[C@@]23CCCN2C[C@H](F)C3)nc2c(F)c(-c3ccc(F)c4sc(N)c(C#N)c34)c(C(F)(F)F)cc12 (atropisomer, axis not shown) [Compound 625] | – | – | – | – | – | – | 1000 to 10000 | 1000 to 10000 | 1000 to 10000 | < 100 | 100 to 1000 | < 100 | – | – |
| CCN(c1nc(OC[C@@]23CCCN2C[C@H](F)C3)nc2c(F)c(-c3ccc(F)c4sc(N)c(C#N)c34)c(C(F)(F)F)cc12)[C@H]1C[C@H](C)N(C(=O)c2ccon2)C1 (atropisomer, axis not shown) [Compound 766] | – | – | – | – | – | – | < 100 | < 100 | < 100 | < 100 | < 100 | < 100 | – | – |
| N#Cc1c(N)sc2c(F)ccc(-c3c(C(F)(F)F)cc4c(N5CCn6nc(C(=O)N7CCC(O)C7)cc6C5)nc(OCC56CCCN5CC(F)C6)nc4c3F)c12 (stereo not drawn) [Compound 513] | 100 to 1000 | 100 to 1000 | 100 to 1000 | – | 100 to 1000 | – | – | – | – | – | – | – | 100 to 1000 | < 100 |
| CCN(c1nc(OC[C@@]23CCCN2C[C@H](F)C3)nc2c(F)c(-c3ccc(F)c4sc(N)c(C#N)c34)c(C(F)(F)F)cc12)[C@@H]1CCN(C(C)=O)[C@H]1C [Compound 414] | 100 to 1000 | 100 to 1000 | 100 to 1000 | 100 to 1000 | 100 to 1000 | < 100 | – | – | – | – | – | – | – | – |

More lines, now with the values ahead:

| IC50 ([1]; KRAS WT-GppNHp/RAF1 RBD HTRF) [nM] | IC50 ([2]; KRAS G12V-GppNHp/RAF1 RBD HTRF) [nM] | IC50 ([3]; KRAS G12R-GppNHp/RAF1 RBD HTRF) [nM] | IC50 [4, 7] [nM] | IC50 ([5]; KRAS G12D-GppNHp/RAF1 RBD HTRF) [nM] | IC50 ([6]; GP2d) [nM] | IC50 [1, 8] [nM] | IC50 [2, 9] [nM] | IC50 [3, 10] [nM] | IC50 [4, 11] [nM] | IC50 [5, 12] [nM] | IC50 ([6]; GP2d, class symbols) [nM] | IC50 ([4]; SW620 (KRAS G12V) cells) [nM] | IC50 [6] [nM] | Compound |
| --- | --- | --- | --- | --- | --- | --- | --- | --- | --- | --- | --- | --- | --- | --- |
| – | – | – | – | – | – | < 100 | < 100 | < 100 | < 100 | < 100 | < 100 | – | – | CCN(c1nc(OC[C@@]23CCCN2C[C@H](F)C3)nc2c(F)c(-c3ccc(F)c4sc(N)c(C#N)c34)c(C(F)(F)F)cc12)[C@H]1CCN(C(=O)OCC2COC2)C1 (atropisomer, axis not shown) [Compound 639] |
| 100 to 1000 | 100 to 1000 | 100 to 1000 | < 100 | 100 to 1000 | < 100 | – | – | – | – | – | – | – | – | CCN(c1nc(OC[C@@]23CCCN2C[C@H](F)C3)nc2c(F)c(-c3ccc(F)c4sc(N)c(C#N)c34)c(C(F)(F)F)cc12)[C@H]1CCS(=O)(=O)C1 [Compound 350] |
| – | – | – | – | – | – | < 100 | < 100 | < 100 | < 100 | < 100 | < 100 | – | – | CCN(c1nc(OC[C@@]23CCCN2C[C@H](F)C3)nc2c(F)c(-c3ccc(F)c4sc(N)c(C#N)c34)c(C(F)(F)F)cc12)[C@H]1CCN(C(=O)N2CC3(COC3)C2)C1 (atropisomer, axis not shown) [Compound 637] |
| – | – | – | – | – | – | < 100 | < 100 | < 100 | < 100 | < 100 | < 100 | – | – | CCN(c1nc(OC[C@@]23CCCN2C[C@H](F)C3)nc2c(F)c(-c3ccc(F)c4sc(N)c(C#N)c34)c(C(F)(F)F)cc12)[C@H]1CCN(C(=O)[C@@H]2C[C@H]2C)C1 (atropisomer, axis not shown) [Compound 690] |
| 100 to 1000 | < 100 | < 100 | < 100 | < 100 | < 100 | – | – | – | – | – | – | – | – | CCN(c1nc(OC[C@@]23CCCN2C[C@H](F)C3)nc2c(F)c(-c3ccc(F)c4sc(N)c(C#N)c34)c(C(F)(F)F)cc12)[C@H]1CCN(C(=O)C2(F)CC2)C1 (atropisomer, axis not shown) [Compound 559] |
| – | – | – | – | – | – | < 100 | < 100 | < 100 | < 100 | < 100 | < 100 | – | – | CCN(c1nc(OCC23CCCN2CC(F)C3)nc2c(F)c(-c3ccc(F)c4sc(N)c(C#N)c34)c(C(F)(F)F)cc12)C1CCN(C(=O)c2ncccn2)C1 (stereo not drawn) [Compound 712] |
| – | – | – | – | – | – | < 100 | < 100 | < 100 | < 100 | < 100 | < 100 | – | – | CCN(c1nc(OC[C@@]23CCCN2C[C@H](F)C3)nc2c(F)c(-c3ccc(F)c4sc(N)c(C#N)c34)c(C(F)(F)F)cc12)[C@H]1CCN(C(=O)OC2CCN(C(C)=O)C2)C1 (stereo partly drawn) [Compound 711] |
| – | – | – | – | – | – | 100 to 1000 | 100 to 1000 | < 100 | < 100 | < 100 | < 100 | – | – | CN(C)C(=O)N1CC[C@H](N(C)c2nc(OC[C@@]34CCCN3C[C@H](F)C4)nc3c(F)c(-c4ccc(F)c5sc(N)c(C#N)c45)c(C(F)(F)F)cc23)C1 (atropisomer, axis not shown) [Compound 755] |
| – | – | – | – | – | – | < 100 | < 100 | < 100 | < 100 | < 100 | < 100 | – | – | CCN(c1nc(OC[C@@]23CCCN2C[C@H](F)C3)nc2c(F)c(-c3ccc(F)c4sc(N)c(C#N)c34)c(C(F)(F)F)cc12)[C@H]1C[C@H]2CN(C3CC3)C(=O)N2C1 (atropisomer, axis not shown) [Compound 775] |
| – | – | – | – | – | – | 100 to 1000 | 100 to 1000 | < 100 | < 100 | < 100 | < 100 | – | – | CCN(c1nc(OC[C@@]23CCCN2C[C@H](F)C3)nc2c(F)c(-c3ccc(F)c4sc(N)c(C#N)c34)c(C(F)(F)F)cc12)[C@H]1CCN(C(=O)OC2CC(F)C2)C1 (stereo partly drawn) [Compound 776] |
